Experimental data as given in US4442300A, “Therapeutically active compounds” (Aktiebolaget Draco, priority 1980, dated 1984).
Where “and” joins values, the source holds several entries; their conditions need not be identical. Equal entries are not always repeated. Entries after “also recorded” stand apart in the source; their conditions may differ. Where two headings read alike, the source gives them in different places.

What was measured:
[1] = test system: histamine-induced bronchospasm; test: Protecting effect against histamine-induced bronchospasm after oral administration (test C2); type: in vivo, guinea-pigs, Dunkin-Hartley strain; conditions: for ED50: Cavia porcellus, 0.05 h, histamine aerosol, read-out: Dose protecting 50% of the test animals for more than 3 minutes (ED50)
Experimental: Male guinea-pigs, Dunkin-Hartley strain, 150-200 g, were used in the study. The animals were starved for about 15 hours (water ad libitum) before the administration, by a stomach tube, of test compound or vehicle (controls). To establish an adequate time period between administration and histamine exposure, the maximum plasma level of terbutaline produced from the hydrolysis of the given pro-drugs of terbutaline was determined. Thus, blood samples (in pre-experimental series) were collected from guinea-pigs at different times after the administration of the test compound and the plasma level of terbutaline was determined by a massfragmentographic assay. A peak in the plasma terbutaline was noted 50-60 minutes after the administration, and this time was selected as time for start of histamine exposure.
The histamine aerosol was generated by Bird inline nebulizers from a solution containing 0.02% histamine-HCl and 3% glycerole. The protecting effect was estimated from the delay in appeareance of signs of anoxia in drug-treated animals. […] Drug-treated guinea-pigs without any signs of respiratory influence from the histamine during these first 3 minutes were denoted as protected.

[2] = test system: histamine evoked rise of the insufflation pressure; test: Duration of bronchospasmolytic activity after local administration via aerosol, histamine-induced bronchoconstriction (test B); type: in vivo, Guinea-pigs, strain Dunkin-Hartley
Experimental: Guinea-pigs, strain Dunkin-Hartley, of either sex, weighing 500-900 g were anaesthetized by i.p. injection and i.v. infusion of pentobarbital. The animals were artifically ventilated with a Braun constant volume respiration pump giving 70 strokes/min and a stroke volume of 0.75 ml/100 g body weight. Intratracheal pressure (insufflation pressure) was measured by use of a T-junction on the tracheal cannula connected to a Statham pressure transducer P23BC. An increase in intratracheal pressure, indicating bronchoconstriction, was elicited by i.v. injection (v. jugularis) of histamine. The constricting agent was injected every 10 minutes by a timer-controlled perfusor in a dose giving about 80% of the maximum contractile response (1-2.10^-8 mol/kg). The bronchospasmolytic drugs to be tested were solved in aq. dest. containing 3% glycerol and nebulized by use of a Bird Inline Nebulizer (air pressure 0.2 MPa; droplet spectrum around 1 micron). The generated aerosol was lead through the respirator and tracheal cannula. Inhalation of drug was going on during periods of 30 min. The resulting bronchodilator effect was calculated from the percentage reduction of the histamine evoked rise of the insufflation pressure.
The concentration of the test substance in the solved composition that when nebulized produced 50% inhibition of the increased tracheal pressure (ED50) was measured. […]

[3] = test system: isolated auricles from guinea-pig heart; test: In vitro test on isolated guinea-pig auricles (test D1); set-up: species or system strain Dunkin Hartley; conditions: for Emax: Cavia porcellus; for any chronotropic or inotropic effect: isolated auricles, in words; for potentiating or inhibiting effect on the chronotropic and inotropic effect of terbutaline: same concentration as terbutaline
Experimental: Male guinea-pigs strain Dunkin Hartley (400-500 g) were used. After bleeding and removal of the heart the auricles were dissected free from the ventricular part and submerged into carbogen aerated Krebs solution of 37°. The frequency and force of the spontaneously beating preparation was recorded by a Grass transducer FTO3. In the polygraph (Grass 7D) the signals from the isometric transducer passed a trigger function from the drive amplifier to the tachograph to record the rate.
The esterase inhibitor eserine was added to a concentration of 1.10^-6 mol/l in the organ bath before the drugs to be tested were added. The intrinsic activity of the test compounds on the heart preparation, that is their effect on heart rate (chronotropic effect) and their effect on the force of the heart beats (inotropic effect), and their possible interaction with terbutaline was studied.

[4] = test system: heart rate; test: In vivo effect of the test compounds on the heart rate in dogs (test D2); set-up: species or system dog (Beagle); conditions: oral; for Slope of line, increase in heart rate vs. logarithm of corresponding serum conc.: terbutaline 0.01-0.1 mg/kg, compound I 0.3-2.7 mg/kg
Experimental: (§1) Five dogs (Beagle, .male., 13-18 kg) have been used repeatedly in the study. Each dog was used at most once a week. Food was withheld from the animals the night before the experiment (water ad libitum). The test compound was solved or suspended in 8 ml of distilled water, and delivered into the back of the mouth by use of a syringe and a short tube. This oral supply was followed by a water rinse of 8 ml.
The blood was collected from the cephalic veins in the forelegs by use of evacuated tubes. The esterase inhibitor diisopropylfluophosphate (DFP) was added, the samples centrifugated (+5°) and the amount of terbutaline in plasma determined by a massfragmentographic analysis method. The serum level of terbutaline indicates the degree of bronchospasmolytic effect of the test compounds, provided terbutaline is solely responsible for the bronchospasmolytic effect. This method does, however, not measure the intrinsic activity of the test compounds.
(§2) The amounts of the test substances to be administered were selected so that the level of terbutaline, when administered per se, corresponds to the serum levels obtained and found effective in patients at clinical use, that is a level of terbutaline of at least 2 ng/ml serum for 6 to 8 hours. The doses of the test substances of the invention were selected so that the serum levels of terbutaline obtained would correspond approximately with the serum levels obtained after administration of terbutaline per se.
The heart rate was determined by a stethoscope (the mean of three determinations during a 5-minute periode) before the administration of drug and before each blood sampling.
The relative effect of the test compounds on the heart rate of the test animals was illustrated by plotting in a diagram the increase in heart rate measured at a certain serum concentration of terbutaline versus the logarithm of the said terbutaline concentration in serum. Only values before and up to the maximal increase in heart rate were used. This method will produce a graph consisting of a substantially straight line. […]

[5] = Duration of serum levels of terbutaline after oral administration to unanaesthetized dogs (test A); type: in vivo, dog (Beagle); conditions: p.o., >= 2 ng/ml serum
Experimental: A. Duration of serum levels of terbutaline after administration of compounds of the invention to unanaesthetized dogs
as §1
The blood was collected from the cephalic veins in the forelegs by use of evacuated tubes. The esterase inhibitor diisopropylfluophosphate (DFP) was added, the samples centrifugated (+5°) and the most amount of terbutaline in plasma determined by a massfragmentographic analysis method.
as §2

[6] = test system: isolated tracheal muscle; test: Bronchodilating effect in vitro on isolated guinea-pig trachea (test C1); conditions: for Potentiating or inhibiting effect on the bronchodilating effect of terbutaline: 5 min pretreatment with test compound; for EC50: Cavia porcellus; for blockade of the bronchodilating effect by propranolol: propranolol 3.10^-6 mol/l (concentration given for I and II)
Experimental: The trachea from guinea-pigs was dissected out, cut spirally and transferred to a 10 ml organ bath containing Krebs solution of 37° and aerated with carbogen. The tracheal strip was contracted by pilocarpine (4.10^-6 mol/l) producing a tension of about 1.5 g. Isometric recording was made by use of a transducer FTO3 and a Grass polygraph 7D. Before the administration of the test compound the esterase inhibitor eserin was added to the bath in a concentration of 1.10^-6 mol/l. The concentration of the test substances which produces 50% relaxation (EC50) of the pilocarpine contracted trachea was recorded as well as potentiating or inhibiting influence of the test substances of the invention on the relaxing effect of terbutaline. In this last mentioned test the muscle preparation was pretreated with the test compounds during 5 minutes, before the response of terbutaline was recorded.

[7] = cited from earlier work; for duration of bronchospasmolytic activity, in words: compared with terbutaline or salbutamol
[8] = read-out: chromotropic effect on isolated auricle (relative values)
[9] = read-out: inotropic effect on isolated auricle (relative values)
[10] = isolated trachea, Table 3, read-out: concentration producing a bronchodilating effect
[11] = pilocarpine contracted trachea (4.10^-6 mol/l), eserin 1.10^-6 mol/l, read-out: Concentration of test substance producing 50% relaxation of trachea (EC50)

SMILES	protection against histamine-induced bronchospasm on molar basis relative to terbutaline [1]	ED50 [1]	Emax [3, 8]	Emax [3, 9]	any chronotropic or inotropic effect [3]	potentiating or inhibiting effect on the chronotropic and inotropic effect of terbutaline [3]	Slope of line, increase in heart rate vs. logarithm of corresponding serum conc. [4]	Potentiating or inhibiting effect on the bronchodilating effect of terbutaline [6]	EC50 [6, 10]	EC50 [6, 11]	concentration range for bronchodilating effect relative to terbutaline ([6]; isolated trachea)	blockade of the bronchodilating effect by propranolol [6]	duration of bronchospasmolytic activity, in words [7]	further results
CC(C)(C)NCC(O)c1cc(OC(=O)c2ccc(OC(=O)C(C)(C)C)cc2)cc(OC(=O)c2ccc(OC(=O)C(C)(C)C)cc2)c1 (stereo not drawn) [Compound I]	about equally effective as terbutaline	1.1 mg/kg and 1.6 µmol/kg	0%	0%	none	No potentiating or inhibiting effect	0.53	none and No potentiating or inhibiting activity	~1.8 µM	1.8 ± 0.6 µM	about 9 times higher	not blocked		onset of effect [2]: comparable to that produced by terbutaline; duration of bronchospasmolytic effect compared with terbutaline ([2]; at ED50 dose level): about three times longer; increase in heart rate relative to terbutaline ([4]; dogs): relatively much lower; also recorded: considerably reduced; time with clinically useful serum level of terbutaline relative to terbutaline [5]: at least twice as long; time with a serum level of terbutaline of 2 ng/ml or more ([5]; listed as compound I): 16 h
CC(C)C(=O)Oc1ccc(C(=O)Oc2cc(OC(=O)c3ccc(OC(=O)C(C)C)cc3)cc(C(O)CNC(C)(C)C)c2)cc1 (stereo not drawn) [II]	about equally effective as terbutaline	1.1 mg/kg and 1.6 µmol/kg	0%	0%	none	No potentiating or inhibiting effect		none and No potentiating or inhibiting activity	~1.8 µM	1.8 ± 0.6 µM	about 9 times higher	not blocked		
Cc1ccc(C(=O)Oc2ccc(C(O)CNC(C)(C)C)cc2OC(=O)c2ccc(C)cc2)cc1 (stereo not drawn) [bitolterol]													comparable with that of salbutamol	
CC(C)(C)NCC(O)c1ccc(O)c(CO)c1 (stereo not drawn) [salbutamol]													about equal to the duration of terbutaline	
CC(C)(C)NCC(O)c1cc(O)cc(O)c1 (stereo not drawn) [terbutaline, reference compound]			100%	100%			1.04					blocked		serum concentration necessary for desired therapeutic activity ([7]; Hornblad et al.): at least 2 ng/ml
CC(C)(C)NCC(O)c1cc(OC(=O)c2ccc(OC(=O)C(C)(C)C)cc2)cc(OC(=O)c2ccc(OC(=O)C(C)(C)C)cc2)c1 (stereo not drawn) [test substance of the invention]														time with a serum level of terbutaline of 2 ng/ml or more [5]: about 16 hours
